Values joined by “and” are separate entries in the source; they are usually repeats but may differ in a detail not shown here. Equal entries are not always repeated. “Also recorded” adds a separate entry of the source.
Assays:
SkM = test: Lipidomic profiling of skeletal muscle (quadriceps) of mice on chow or HFD; assay type: in vivo
From the text: Male C57BL6/J mice were obtained from the Animal Resources Centre in Perth (WA, Australia). […] Treatment was commenced at the same time as mice were randomised to dietary groups. The experiments were approved by the UNSW animal care and ethics committee (ACEC 15/48B), and followed guidelines issued by the National Health and Medical Research Council of Australia.
Lipids were extracted from frozen tissue samples or cells using a two-phase procedure with methyl-tert-butyl ether (MTBE)/methanol/water (10:3:2.5, v/v/v)[67]. Frozen tissue samples (~20 mg) were homogenized in 0.2 mL methanol containing 0.01% butylated hydroxytoluene (BHT), using a Precellys 24 homogenizer and Cryolys cooling unit (Bertin Technologies) with CK14 (1.4-mm ceramic) beads. The homogenates were spiked with an internal standard mixture comprising 5 nmole 19:0/19:0 phosphatidylcholine and 2 nmole each of 17:0/17:0 phosphatidylethanolamine, 17:0/17:0 phosphatidylserine, 17:0/17:0 d5-diacylglycerol, 17:0/17:0 phosphatidylglycerol, 14:0/14:0/14:0/14:0 cardiolipin, 18:1/12:0 SM, 18:1/17:0 ceramide, 18:1/12:0 glucosylceramide, 18:1/12:0 lactosylceramide, 18:1/12:0 sulfatide (all from Avanti Polar Lipids, USA), and 17:0/17:0/17:0 TAG (Cayman Chemical, USA), then transferred to 10 mL screw cap glass tubes. The homogenization tubes containing beads were then washed with another 0.3 mL methanol, and this wash was combined with the first methanol extract, after which 1.7 mL MTBE was added and the samples were sonicated in an ice-cold sonicating water bath (Thermoline Scientific, Australia) for 30 min. Phase separation was induced by addition of 417 µL of mass spectrometry-grade water followed by vortexing and centrifugation at 1000 × g for 10 min. The upper organic phase was collected into 5 mL glass tubes. The lower phase was re-extracted by adding 1 mL MTBE, 300 μL methanol, and 250 μL water. The organic phases were combined in the 5 mL glass tubes and dried under vacuum in a Savant SC210 SpeedVac (Thermo Scientific), then reconstituted in 500 μL methanol and stored at −20 °C until analysis.
Lipidomic profiling was performed on a QExactive Plus mass spectrometer with heated electrospray ionization (HESI) probe and a Dionex UltiMate 2000 LC pump (Thermo Fisher Scientific). Extracts were resolved on a 2.1 × 100 mm Waters Acquity C18 UPLC column (1.7 µm […]), using a binary gradient in which mobile phase A consisted of acetonitrile:water (60:40), 10 mM ammonium formate, 0.1% formic acid; and mobile phase B was isopropanol:acetonitrile (90:10), 10 mM ammonium formate, 0.1% formic acid[68]. The flow rate was 260 µL/min and column oven 55 °C. Data was acquired in full scan/data-dependent MS^2 mode (full scan resolution 70,000 FWHM, scan range 400–1200 m/z). The ten most abundant ions in each cycle were subjected to MS^2 using an isolation window of 1.4 m/z, collision energy 30 eV, resolution 17,500, maximum integration time 110 ms and dynamic exclusion window 10 s. An exclusion list of background ions was used based on a solvent blank. LipidSearch v4.1.30 software (ThermoFisher Scientific) was used for chromatogram alignment, peak identification and integration. Each lipid peak was manually verified for column elution time and characteristic fragment ions. Data were then exported to an Excel spreadsheet for normalisation of each lipid to its class-specific internal standard, and lipid concentrations were calculated relative to the internal standard.
Data were log transformed, then subjected to two-tailed t-tests adjusted for multiple comparisons using GraphPad PRISM (Benjamini, Krieger and Yekutieli correction, Q = 1%).

liver = test: Mitochondrial markers in liver (Western blots, citrate synthase, βHAD); set-up: species or system mice; conditions: mouse, in vivo
Description: Tissues were homogenized in RIPA buffer (100 mM NaCl, 10 mM Tris, pH 7.4, 1% Triton X-100, 0.5% sodium deoxycholate, 0.1% SDS, 1 mM EDTA, 10% Glycerol) containing complete protease inhibitor cocktail (Roche) and phosphatase inhibitors (3 mM β-glycerophosphate, 1 mM sodium orthovanadate, 5 mM sodium fluoride) by bead-beating in a Precellys 24 at 4 °C. Extracts were centrifuged at 6500 rpm for 10 min at 4 °C. Supernatant was collected and protein concentrations determined with the Bicinchoninic acid (BCA) assay (Thermo Scientific). […] All antibodies were used at a dilution of 1:1000. A common loading control was included on every gel to account for variation in relative band intensities between different blots. Antibody-antigen binding was detected using ECL Reagent (GE Healthcare) and imaged on a Fujifilm Las-4000 CCD camera. Bands were quantified by densitometry with Fuji ImageQuantTL software.
Liver and tibialis muscle were homogenized 1:19 (w/v) in 50 mM Tris-HCl, 1 mM EDTA, 0.1% Triton X-100, pH 7.4. The homogenates were subjected to three freeze-thaw cycles and centrifuged for 10 min at 7000 × g at 4 °C. Supernatants were used to determine the activity of CS and βHAD[66].

[1] = Muscle lipidomic data, Chow Vehicle vs Chow P053, Mean1 minus Mean2
[2] = Muscle lipidomic data, Chow Vehicle vs Chow P053, Mean2 = Chow P053 group
[3] = Muscle lipidomic data, HFD Vehicle vs HFD P053, Mean1 minus Mean2
[4] = Muscle lipidomic data, HFD Vehicle vs HFD P053, Mean2 = HFD P053 group

## C[C@@](N)(CO)CCc1ccc(OCc2ccc(Cl)c(Cl)c2)cc1 [P053, (S)-2-amino-4-(4-(3,4-dichlorobenzyloxy)phenyl)-2-methylbutan-1-ol]
SkM; HFD + P053, individual mice
  SM 36:1 content of skeletal muscle: 417.25 and 223.91 and 402.67 and 173.58 and 151.95 and 224.57 and 278.63 and 314.63 and 349.53 and 221.70 and 178.54 and 207.41 and 149.58 and 139.86 and 137.50 and 198.09 and 163.61 and 154.30 and 147.61
  SM 36:2 content of skeletal muscle: 2.88 and 7.47 and 1.66 and 1.87 and 1.75 and 5.22 and 2.66 and 6.56 and 8.38 and 7.06 and 6.58 and 7.04 and 4.61 and 3.90 and 3.95 and 6.89 and 4.71 and 5.16 and 4.33
  SM 38:1 content of skeletal muscle: 11.48 and 13.05 and 11.02 and 10.80 and 17.24 and 10.17 and 15.13 and 9.50 and 12.28 and 0.77 (2×) and 0.82 and 1.11 and 0.80 and 0.71 (2×) and 0.68 and 0.83 and 0.73
  SM 40:1 content of skeletal muscle: 27.34 and 27.26 and 26.32 and 23.00 and 31.62 and 23.79 and 31.23 and 22.04 and 24.26 and 29.13 and 27.02 and 34.08 and 33.01 and 18.95 and 25.13 and 25.49 and 34.47 and 24.05 and 33.50
  SM 40:2 content of skeletal muscle: 1.78 and 2.91 (2×) and 1.98 and 2.11 and 2.83 and 1.89 and 2.53 and 1.77 and 2.29 and 2.59 and 3.38 and 2.49 and 1.96 and 2.67 and 2.64 and 2.84 and 2.34 and 2.94
  SM 42:1 content of skeletal muscle: 15.46 and 16.53 and 18.68 and 19.65 and 22.92 and 14.56 and 23.18 and 14.90 and 18.70 and 19.26 and 17.69 and 25.18 and 22.26 and 12.72 and 19.43 and 19.06 and 23.08 and 18.56 and 31.22
  SM 42:2 content of skeletal muscle: 53.70 and 57.56 and 54.97 and 42.97 and 63.03 and 48.46 and 60.01 and 50.89 and 52.69 and 51.87 and 48.15 and 70.42 and 61.77 and 37.14 and 54.20 and 54.85 and 64.93 and 49.70 and 71.83
  SM 42:3 content of skeletal muscle: 9.08 and 11.26 and 8.06 and 8.54 and 12.73 and 9.01 and 12.20 and 10.73 and 15.91 and 12.10 and 11.91 and 13.64 and 11.55 and 7.81 and 10.86 and 9.89 and 12.79 and 9.17 and 13.47
SkM; HFD + P053 compared to HFD + vehicle
  reduction of most triacylglycerol (TAG) species in SkM: more than 50%
SkM; [1]
  Cer(d18:1/18:0)+H, Difference: 0.4848
  Cer(d18:2/18:0)+H, Difference: 0.6042
SkM; [2]
  Cer(d18:1/18:0)+H, Mean2: 2.896
  Cer(d18:2/18:0)+H, Mean2: 0.4179
SkM; [3]
  Cer(d18:1/18:0)+H, Difference: 0.7206
  Cer(d18:1/22:0)+H, Difference: -0.3135
  Cer(d18:1/24:0)+H, Difference: -0.4027
  Cer(d18:1/24:1)+H, Difference: -0.3555
  Cer(d18:2/18:0)+H, Difference: 0.8901
  SM(d41:1)+H, Difference: -0.3059
  SM(d42:2)+H, Difference: -0.2817
SkM; [4]
  Cer(d18:1/18:0)+H, Mean2: 2.811
  Cer(d18:1/22:0)+H, Mean2: 0.3563
  Cer(d18:1/24:0)+H, Mean2: 0.4756
  Cer(d18:1/24:1)+H, Mean2: 1.172
  Cer(d18:2/18:0)+H, Mean2: 0.1066
  SM(d41:1)+H, Mean2: 1.941
  SM(d42:2)+H, Mean2: 3.999
SkM; chow or HFD
  DG levels in SkM: does not affect; also recorded: unaffected
SkM; normal chow
  SkM TAG levels: did not affect
SkM; pilot study, 7 days, 1 mg/kg/day
  C18 ceramide levels in SkM: no effect
SkM; pilot study, 7 days, 5 mg/kg/day
  reduction of C18 ceramide levels in SkM: 31%
liver
  mitochondrial markers in liver: no increase
